Assay results as given in patent US5968513A (priority 1996, dated 1999).

System: Hematopoietic progenitor cells from normal bone marrow and cord blood
Assay: Clonogenic (colony) assays of hematopoietic progenitor cells in methylcellulose (CFU-MIX, BFU-e, CFU-GM)
Type: cell-based, human
Conditions: hCG preparations 200 IU/ml; subunits and peptides 100 μg/ml; 10 days; aggregates of more than 50 cells counted
Description: Hematopoietic progenitor cells (2×10^5 cell/ml) were isolated from normal bone marrow and cord blood and seeded in methylcellulose. […] Aggregates containing more than 50 cells after 10 days of culture were counted as colonies.

Molecule	growth of hematopoietic progenitors (pro-hematopoietic activity, colony numbers)
β-hCG peptide 38-57: β-hCG peptide of amino acids 38-57 (CPTMTRVLQGVLPALPQVVC; UniProt P0DN86 58-77, looked up, fragment)	little or no effects
α-hCG peptide 88-92: α-hCG peptide of amino acids 88-92 (YYHKS; UniProt P01215 112-116, looked up, fragment)	little or no effects
β-hCG peptide 100-110: β-hCG peptide of amino acids 100-110 (CGGPKDHPLTC; UniProt P0DN86 120-130, looked up, fragment)	little or no effects
β-hCG peptide 57-93: β-hCG peptide of amino acids 57-93 (CNYRDVRFESIRLPGCPRGVNPVVSYAVALSCQCALC; UniProt P0DN86 77-113, looked up, fragment)	little or no effects
β-hCG peptide 74-95: β-hCG peptide of amino acids 74-95	little or no effects
β-hCG peptide 34-49: β-hCG peptide of amino acids 34-49 (CAGYCPTMTRVLQGVL; UniProt P0DN86 54-69, looked up, fragment)	little or no effects
β-hCG peptide 7-40: β-hCG peptide of amino acids 7-40 (PRCRPINATLAVEKEGCPVCITVNTTICAGYCPT; UniProt P0DN86 27-60, looked up, fragment)	little or no effects
partially purified native β-chain: crude preparation of native β-hCG (protein, UniProt P0DN86 21-165, looked up, native, partially purified, crude preparation of native β-hCG) Choriogonadotropin subunit …: SKEPLRPRCRPINATLAVEKEGCPVCITVNTTICAGYCPTMTRVLQGVLPALPQVVCNYRDVRFESIRLPGCPRGVNPVVSYAVALSCQCALCRRSTTDCGGPKDHPLTCDDPRFQDSSSSKAPPPSLPSPSRLPGPSDTPILPQ	directly promoted

Same assay, conditions: hCG preparations 200 IU/ml; subunits and peptides 100 μg/ml; 10 days; aggregates of more than 50 cells counted; listed as whole β-chain

Molecule	growth of hematopoietic progenitors (pro-hematopoietic activity, colony numbers)
partially purified native β-chain: crude preparation of native β-hCG (protein, UniProt P0DN86 21-165, looked up, native, partially purified, crude preparation of native β-hCG) Choriogonadotropin subunit …: SKEPLRPRCRPINATLAVEKEGCPVCITVNTTICAGYCPTMTRVLQGVLPALPQVVCNYRDVRFESIRLPGCPRGVNPVVSYAVALSCQCALCRRSTTDCGGPKDHPLTCDDPRFQDSSSSKAPPPSLPSPSRLPGPSDTPILPQ	considerable pro-hematopoietic activity
